Tested on: phosphorylation of Serine 473 in Akt in MDA-MB-468 human breast adenocarcinoma cells
Assay: In vitro phospho-Ser473 Akt assay (Test (c))
Type: cell-based
Conditions: Homo sapiens, MDA-MB-468, 2 h, MDA-MB-468 cells, 2 hours incubation; read-out: Test (c): IC50 versus Serine 473 in Akt
Summary of the method: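 MDA-MB-468 cells (15000/well, adhered overnight) treated with compound for 2 h at 37 °C, 5% CO2. After formaldehyde fixation, permeabilisation and blocking, phospho-Akt Ser473 immunostained with Alexafluor488 secondary and quantified by laser-scanning imaging (Acumen Explorer); IC50 from fluorescence dose–response.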

Row | Compound | IC50 [nM]
1 | CC(C)S(=O)(=O)C(C)(C)c1cc(N2CCOC[C@@H]2C)nc(-c2ccc(NC(=O)NCCN(C)C)cc2)n1 [Example 60p, 3-(2-dimethylaminoethyl)-1-[4-[4-[(3S)-3-methylmorpholin-4-yl]-6-(2-propan-2-ylsulfonylpropan-2-yl)pyrimidin-2-yl]phenyl]urea] | 140
2 | CCCNC(=O)Nc1ccc(-c2nc(N3CCOC[C@@H]3C)cc(C(C)(C)S(=O)(=O)C(C)C)n2)cc1 [Example 60q, 3-[4-[4-[(3S)-3-methylmorpholin-4-yl]-6-(2-propan-2-ylsulfonylpropan-2-yl)pyrimidin-2-yl]phenyl]-1-propyl-urea] | 160
3 | CC(C)CNC(=O)Nc1ccc(-c2nc(N3CCOC[C@@H]3C)cc(C(C)(C)S(=O)(=O)C(C)C)n2)cc1 [Example 60r, 1-[4-[4-[(3S)-3-methylmorpholin-4-yl]-6-(2-propan-2-ylsulfonylpropan-2-yl)pyrimidin-2-yl]phenyl]-3-(2-methylpropyl)urea] | 210
4 | CC(C)S(=O)(=O)C(C)(C)c1cc(N2CCOC[C@@H]2C)nc(-c2ccc(NC(=O)NCCCO)cc2)n1 [Example 60s, 3-(3-hydroxypropyl)-1-[4-[4-[(3S)-3-methylmorpholin-4-yl]-6-(2-propan-2-ylsulfonylpropan-2-yl)pyrimidin-2-yl]phenyl]urea] | 300
5 | C[C@H]1COCCN1c1cc(CS(=O)(=O)c2ccc(F)cc2)nc(-c2ccc(NC(=O)NCCO)cc2)n1 [Example 61c, 1-[4-[4-[(4-fluorophenyl)sulfonylmethyl]-6-[(3S)-3-methylmorpholin-4-yl]pyrimidin-2-yl]phenyl]-3-(2-hydroxyethyl)urea] | 410
6 | C[C@H]1COCCN1c1cc(CS(=O)(=O)c2ccc(F)cc2)nc(-c2ccc(NC(=O)NC(C)(C)CO)cc2)n1 [Example 61d, 1-[4-[4-[(4-fluorophenyl)sulfonylmethyl]-6-[(3S)-3-methylmorpholin-4-yl]pyrimidin-2-yl]phenyl]-3-(1-hydroxy-2-methyl-propan-2-yl)urea] | 180
7 | CC(C)CNC(=O)Nc1ccc(-c2nc(CS(=O)(=O)c3ccc(F)cc3)cc(N3CCOC[C@@H]3C)n2)cc1 [Example 61g, 1-[4-[4-[(4-fluorophenyl)sulfonylmethyl]-6-[(3S)-3-methylmorpholin-4-yl]pyrimidin-2-yl]phenyl]-3-(2-methylpropyl)urea] | 450
8 | CNC(=O)Nc1ccc(-c2nc(N3CCOC[C@@H]3C)cc(C(C)(C)S(=O)(=O)c3ccc(F)cc3)n2)cc1 [Example 61k, 1-[4-[4-[2-(4-fluorophenyl)sulfonylpropan-2-yl]-6-[(3S)-3-methylmorpholin-4-yl]pyrimidin-2-yl]phenyl]-3-methyl-urea] | 120
9 | CCNC(=O)Nc1ccc(-c2nc(N3CCOC[C@@H]3C)cc(C(C)(C)S(=O)(=O)c3ccc(F)cc3)n2)cc1 [Example 61l, 1-ethyl-3-[4-[4-[2-(4-fluorophenyl)sulfonylpropan-2-yl]-6-[(3S)-3-methylmorpholin-4-yl]pyrimidin-2-yl]phenyl]urea] | 99
10 | C[C@H]1COCCN1c1cc(C(C)(C)S(=O)(=O)c2ccc(F)cc2)nc(-c2ccc(NC(=O)NC3CC3)cc2)n1 [Example 61q, 3-cyclopropyl-1-[4-[4-[2-(4-fluorophenyl)sulfonylpropan-2-yl]-6-[(3S)-3-methylmorpholin-4-yl]pyrimidin-2-yl]phenyl]urea] | 77
11 | C[C@H]1COCCN1c1cc(C(=O)N2CCOCC2)nc(-c2ccc(NC(=O)NC3CC3)cc2)n1 [Example 63, 3-Cyclopropyl-1-[4-[4-[(3S)-3-methylmorpholin-4-yl]-6-(morpholine-4-carbonyl)pyrimidin-2-yl]phenyl]urea] | 410
12 | C[C@H]1COCCN1c1cc(C(=O)N2CCCNCC2)nc(-c2ccc(NC(=O)NC3CC3)cc2)n1 [Example 63a, 3-cyclopropyl-1-[4-[4-(1,4-diazepane-1-carbonyl)-6-[(3S)-3-methylmorpholin-4-yl]pyrimidin-2-yl]phenyl]urea] | 92
13 | C[C@H]1COCCN1c1cc(C(=O)N2CCS(=O)(=O)CC2)nc(-c2ccc(NC(=O)NC3CC3)cc2)n1 [Example 63b, 3-cyclopropyl-1-[4-[4-(1,1-dioxo1,4-thiazinane-4-carbonyl)-6-[(3S)-3-methylmorpholin-4-yl]pyrimidin-2-yl]phenyl]urea] | 500
14 | C[C@@H]1CN(C(=O)c2cc(N3CCOC[C@@H]3C)nc(-c3ccc(NC(=O)NC4CC4)cc3)n2)C[C@H](C)O1 [Example 63c, 3-cyclopropyl-1-[4-[4-[(2R,6S)-2,6-dimethylmorpholine-4-carbonyl]-6-[(3S)-3-methylmorpholin-4-yl]pyrimidin-2-yl]phenyl]urea] | 260
15 | CCNC(=O)Nc1ccc(-c2nc(N3CCOC[C@@H]3C)cc(C(C)(C)S(=O)(=O)C(C)(C)C)n2)cc1 [Example 66e, 3-ethyl-1-[4-[4-[(3S)-3-methylmorpholin-4-yl]-6-(2-tert-butylsulfonylpropan-2-yl)pyrimidin-2-yl]phenyl]urea] | 260

Next, values leading:

Row | IC50 [nM] | Compound
16 | 86 | CC(C)S(=O)(=O)C(C)(C)c1cc(N2CCOC[C@@H]2C)nc(-c2ccc(NC(=O)NC(C)(C)CO)cc2)n1 [Example 60o, 3-(1-hydroxy-2-methyl-propan-2-yl)-1-[4-[4-[(3S)-3-methylmorpholin-4-yl]-6-(2-propan-2-ylsulfonylpropan-2-yl)pyrimidin-2-yl]phenyl]urea]
17 | 1400 | CC(C)S(=O)(=O)C(C)(C)c1cc(N2CCOC[C@@H]2C)nc(-c2ccc(NC(=O)Nc3ccc(C(F)(F)F)cc3)cc2)n1 [Example 60t, 1-[4-[4-[(3S)-3-methylmorpholin-4-yl]-6-(2-propan-2-ylsulfonylpropan-2-yl)pyrimidin-2-yl]phenyl]-3-[4-(trifluoromethyl)phenyl]urea]
18 | 270 | CC(C)S(=O)(=O)C(C)(C)c1cc(N2CCOC[C@@H]2C)nc(-c2ccc(NC(=O)Nc3cnn(C)c3)cc2)n1 [Example 60v, 1-[4-[4-[(3S)-3-methylmorpholin-4-yl]-6-(2-propan-2-ylsulfonylpropan-2-yl)pyrimidin-2-yl]phenyl]-3-(1-methylpyrazol-4-yl)urea]
19 | 330 | C[C@H]1COCCN1c1cc(CS(=O)(=O)c2ccc(F)cc2)nc(-c2ccc(NC(=O)NC3CCC3)cc2)n1 [Example 61, 3-Cyclobutyl-1-[4-[4-[(4-fluorophenyl)sulfonylmethyl]-6-[(3S)-3-methylmorpholin-4-yl]pyrimidin-2-yl]phenyl]urea]
20 | 750 | CCNC(=O)Nc1ccc(-c2nc(CS(=O)(=O)c3ccc(F)cc3)cc(N3CCOC[C@@H]3C)n2)cc1 [Example 61a, 1-ethyl-3-[4-[4-[(4-fluorophenyl)sulfonylmethyl]-6-[(3S)-3-methylmorpholin-4-yl]pyrimidin-2-yl]phenyl]urea]
21 | 38 | CC(C)NC(=O)Nc1ccc(-c2nc(CS(=O)(=O)c3ccc(F)cc3)cc(N3CCOC[C@@H]3C)n2)cc1 [Example 61b, 1-[4-[4-[(4-fluorophenyl)sulfonylmethyl]-6-[(3S)-3-methylmorpholin-4-yl]pyrimidin-2-yl]phenyl]-3-propan-2-yl-urea]
22 | 120 | C[C@H]1COCCN1c1cc(CS(=O)(=O)c2ccc(F)cc2)nc(-c2ccc(NC(=O)NCCN(C)C)cc2)n1 [Example 61e, 3-(2-dimethylaminoethyl)-1-[4-[4-[(4-fluorophenyl)sulfonylmethyl]-6-[(3S)-3-methylmorpholin-4-yl]pyrimidin-2-yl]phenyl]urea]
23 | 790 | C[C@H]1COCCN1c1cc(CS(=O)(=O)c2ccc(F)cc2)nc(-c2ccc(NC(=O)NCCCO)cc2)n1 [Example 61h, 1-[4-[4-[(4-fluorophenyl)sulfonylmethyl]-6-[(3S)-3-methylmorpholin-4-yl]pyrimidin-2-yl]phenyl]-3-(3-hydroxypropyl)urea]
24 | 30 | CC(C)NC(=O)Nc1ccc(-c2nc(N3CCOC[C@@H]3C)cc(C(C)(C)S(=O)(=O)c3ccc(F)cc3)n2)cc1 [Example 61m, 1-[4-[4-[2-(4-fluorophenyl)sulfonylpropan-2-yl]-6-[(3S)-3-methylmorpholin-4-yl]pyrimidin-2-yl]phenyl]-3-propan-2-yl-urea]
25 | 38 | C[C@H]1COCCN1c1cc(C(C)(C)S(=O)(=O)c2ccc(F)cc2)nc(-c2ccc(NC(=O)NC3CCC3)cc2)n1 [Example 61n, 3-cyclobutyl-1-[4-[4-[2-(4-fluorophenyl)sulfonylpropan-2-yl]-6-[(3S)-3-methylmorpholin-4-yl]pyrimidin-2-yl]phenyl]urea]
26 | 45 | C[C@H]1COCCN1c1cc(C(C)(C)S(=O)(=O)c2ccc(F)cc2)nc(-c2ccc(NC(=O)NCCN(C)C)cc2)n1 [Example 61o, 3-(2-dimethylaminoethyl)-1-[4-[4-[2-(4-fluorophenyl)sulfonylpropan-2-yl]-6-[(3S)-3-methylmorpholin-4-yl]pyrimidin-2-yl]phenyl]urea]
27 | 150 | C[C@H]1COCCN1c1cc(C(C)(C)S(=O)(=O)C(C)(C)C)nc(-c2ccc(NC(=O)NC3CC3)cc2)n1 [Example 66c, 3-cyclopropyl-1-[4-[4-[(3S)-3-methylmorpholin-4-yl]-6-(2-tert-butylsulfonylpropan-2-yl)pyrimidin-2-yl]phenyl]urea]
28 | 160 | C[C@H]1COCCN1c1cc(C(C)(C)S(=O)(=O)C(C)(C)C)nc(-c2ccc(NC(=O)NC3CCC3)cc2)n1 [Example 66d, 3-cyclobutyl-1-[4-[4-[(3S)-3-methylmorpholin-4-yl]-6-(2-tert-butylsulfonylpropan-2-yl)pyrimidin-2-yl]phenyl]urea]
29 | 40 | C[C@H]1COCCN1c1cc(C(C)(C)S(=O)(=O)C(C)(C)C)nc(-c2ccc(NC(=O)NCCN(C)C)cc2)n1 [Example 66f, 3-(2-dimethylaminoethyl)-1-[4-[4-[(3S)-3-methylmorpholin-4-yl]-6-(2-tert-butylsulfonylpropan-2-yl)pyrimidin-2-yl]phenyl]urea]
